Reference: article PMC12118597 (Science Advances, 2025)
Values joined by “and” are separate entries in the source; they are usually repeats but may differ in a detail not shown here. Equal entries are not always repeated. Where two headings read alike, the source gives them in different places.

Biological target: SARS-CoV-2 NSP3 macrodomain (Mac1) (Severe acute respiratory syndrome coronavirus 2, UniProt P0DTD1)
Format: binding
Conditions: for Total number of conformations: ligand conformations modeled in the crystal structure; for 2*(1-BDC) (%): occupancy estimate from PanDDA
[1] = PanDDA background density correction factor
[2] = TRUE = crystal structure with ligand obtained
[3] = crystal soak 10 mM, P43 crystal form
[4] = crystal soak 10 mM, DMSO background map
[5] = refined crystallographic occupancy
[6] = site of ligand in X-ray crystal structure
[7] = PanDDA background density correction, 1-BDC
[8] = crystal soak concentration 10 mM, DMSO background map
[9] = crystal soak concentration 10 mM, P43 crystals
[10] = ligand-bound crystal structure obtained (TRUE)
[11] = site occupied in X-ray crystal structure
[12] = crystal soak 10 mM, TFA/DMSO background map

C#CCC(CO)Nc1ncnc2[nH]ccc12 (stereo not shown) [AVI-3644]
Occupancy difference (refined_occupancy - 2*(1-BDC)): 0
1-BDC [1]: 0.18
X-ray crystal structure [2]: TRUE
PanDDA run, overall: Hit [3]: TRUE
PanDDA run, overall: Modeled [3]: TRUE
PanDDA run, DMSO background map: 1-BDC [4]: 0.18
PanDDA run, DMSO background map: Hit [4]: TRUE
Total number of conformations: 1
2*(1-BDC) (%): 36%
Refined ligand occupancy (%) [5]: 36%
Binding site [6]: Adenosine

Cc1c[nH]c2ncnc(NCC3(O)CCC(O)CC3)c12 (stereo not shown) [AVI-4329]
1-BDC [7]: 0.09
Hit (PanDDA run, DMSO background map) [8]: TRUE
Modeled (PanDDA run, DMSO background map) [8]: TRUE
1-BDC (PanDDA run, DMSO background map) (crystal soak concentration 10 mM, DMSO background map, event 1): 0.09 and 0.11
Hit (PanDDA run, overall) [9]: TRUE
Modeled (PanDDA run, overall) [9]: TRUE
Modeling comment (PanDDA run, overall) [9]: Duplicate, not modeled
Refined ligand occupancy (%) (crystallographic refinement): 30%
X-ray crystal structure [10]: TRUE
2*(1-BDC) (%): 18%
Binding site [11]: Adenosine

CC(C)(C)C1CCCN1c1ncnc2[nH]ccc12 (stereo not shown) [AVI-6000]
1-BDC [7]: 0.07
Refined ligand occupancy (%) (crystallographic refinement): 14%
X-ray crystal structure [10]: TRUE
2*(1-BDC) (%): 14%
Binding site [11]: Adenosine

O[C@@H]1CN(c2ncnc3[nH]ccc23)C[C@H]1F [AVI-616]
Occupancy difference (refined_occupancy - 2*(1-BDC)): 0
1-BDC [1]: 0.2
X-ray crystal structure [2]: TRUE
PanDDA run, overall: Hit [3]: TRUE
PanDDA run, DMSO background map: 1-BDC [4]: 0.2
PanDDA run, DMSO background map: Hit [4]: TRUE
Total number of conformations: 1
2*(1-BDC) (%): 40%
Refined ligand occupancy (%) [5]: 40%
Binding site (site of Mac1 occupied in the X-ray crystal structure): Adenosine

O=C(O)C(F)(F)F.OCC(Nc1ncnc2[nH]ccc12)C(O)C1CCCCC1 (stereo not shown) [AVI-3687]
PanDDA run, overall: Hit [3]: TRUE
PanDDA run, overall: Modeling comment [3]: Weak density, not modeled
PanDDA run, DMSO background map: 1-BDC [4]: 0.15
PanDDA run, DMSO background map: Hit [4]: TRUE
PanDDA run, TFA/DMSO background map: 1-BDC [12]: 0.08
PanDDA run, TFA/DMSO background map: Hit [12]: TRUE

OCC(Nc1ncnc2[nH]ccc12)c1ccco1 (stereo not shown) [AVI-3659]
Occupancy difference (refined_occupancy - 2*(1-BDC)): 0
1-BDC [1]: 0.16
X-ray crystal structure [2]: TRUE
PanDDA run, overall: Hit [3]: TRUE
PanDDA run, overall: Modeled [3]: TRUE
PanDDA run, DMSO background map: 1-BDC [4]: 0.16
PanDDA run, DMSO background map: Hit [4]: TRUE
Total number of conformations: 1
2*(1-BDC) (%): 32%
Refined ligand occupancy (%) [5]: 32%
Binding site [6]: Adenosine

OCC(CC1CCCC1)Nc1ncnc2[nH]ccc12 (stereo not shown) [AVI-3691]
Occupancy difference (refined_occupancy - 2*(1-BDC)): -16
1-BDC [1]: 0.18
X-ray crystal structure [2]: TRUE
PanDDA run, overall: Hit [3]: TRUE
PanDDA run, overall: Modeled [3]: TRUE
PanDDA run, DMSO background map: 1-BDC [4]: 0.18
PanDDA run, DMSO background map: Hit [4]: TRUE
Total number of conformations: 1
2*(1-BDC) (%): 36%
Refined ligand occupancy (%) [5]: 20%
Binding site [6]: Adenosine

OCC(Cc1ccoc1)Nc1ncnc2[nH]ccc12 (stereo not shown) [AVI-3705]
Occupancy difference (refined_occupancy - 2*(1-BDC)): 0
1-BDC [1]: 0.21
X-ray crystal structure [2]: TRUE
PanDDA run, overall: Hit [3]: TRUE
PanDDA run, DMSO background map: 1-BDC [4]: 0.21
PanDDA run, DMSO background map: Hit [4]: TRUE
Total number of conformations: 1
2*(1-BDC) (%): 42%
Refined ligand occupancy (%) [5]: 42%
Binding site [6]: Adenosine

OCC(Cc1cccs1)Nc1ncnc2[nH]ccc12 (stereo not shown) [AVI-3711]
Occupancy difference (refined_occupancy - 2*(1-BDC)): 0
1-BDC [1]: 0.21
X-ray crystal structure [2]: TRUE
PanDDA run, overall: Hit [3]: TRUE
PanDDA run, DMSO background map: 1-BDC [4]: 0.21
PanDDA run, DMSO background map: Hit [4]: TRUE
Total number of conformations: 1
2*(1-BDC) (%): 42%
Refined ligand occupancy (%) [5]: 42%
Binding site [6]: Adenosine
